Source: PMC10934261, “Designing Potent Anti-Cancer Agents: Synthesis and Molecular Docking Studies of Thieno[2,3-d][1,2,4]triazolo[1,5-a]pyrimidine Derivatives” (Molecules, 2024)
Several values for one entry are separate records, joined by “and”; a condition that tells them apart may be missing. Identical values can stand only once.

Columns and labels:
[1] = tested on: human breast MCF-7 cancer cell line; experiment: In vitro cytotoxic screening (MTT assay), MCF-7; format: cell-based; conditions: for Percentage cytotoxicity on MCF-7: average ± standard deviation
Procedure: (§1) Using human breast MCF-7, colorectal HCT-116, and prostate PC-3 cancer cell lines, preliminary antiproliferative effectiveness of cyclopenta[4,5]thieno[2,3-d][1,2,4]triazolo[1,5-a]pyrimidin-9(6H)-ones 4–16 was established in vitro through MTT assay at different concentrations (100, 50, 25 and 12.5 μM) (Figure 2).
(§2) The cell lines were obtained from Karolinska Center, Department of Oncology and Pathology, Karolinska Institute and Hospital, Stockholm, Sweden. as follows: human breast MCF-7, colorectal HCT-116 and prostate PC-3 cancer cell lines and human skin normal BJ-1 cell line. Exponentially, cells were cultured at a concentration of 10^4 cells/well for 24 h, afterwards fresh medium containing different concentrations of the tested samples was added. Serial two-fold dilution of the tested samples were added using a multichannel pipette. Moreover, all cells were cultivated at 37 °C, 5% CO2 and 95% humidity. Also, incubation of control cells occurred at 37 °C. However, after incubation for 24 h different concentrations of samples (100, 50, 25 and 12.5 µM) were added and the incubation was continued for 48 h, then crystal violet solution 1% was added to each well for 0.5 h to examine the presence of viable cells. After rinsing the wells using water until stain free, 30% glacial acetic acid was added to all wells with shaking the plates on a Microplate reader (TECAN, Inc.) to measure the absorbance at a wavelength of 490 nm. The cytotoxicity was estimated by IC50 in μM, which is the concentration that inhibits 50% of growth of cancer cells. […]
(§3) 1.1. In vitro cytotoxic screening
(§4) The cell lines were obtained from Karolinska Center, Department of Oncology and Pathology, Karolinska Institute and Hospital, Stockholm, Sweden. as follows: human breast MCF-7, colorectal HCT-116 and prostate PC-3 cancer cell lines and human skin normal BJ-1 cell line. Exponentially, cells were placed in 10^4 cells/ well for 24 h, and then add fresh medium which containing different concentration of the tested sample. Serial two-fold dilution of the tested sample were added using a multichannel pipette. Moreover, all cells were cultivated at 37 °C, 5% CO2 and 95% humidity. Also, incubation of control cells occurred at 37 °C. However, after incubation for 24 h different concentrations of sample (100, 50, 25 and 12.5 µM) were added and continued the incubation for 48 h, then, add the crystal violet solution 1% to each well for 0.5 h to examine viable cells. Rinse the wells using water until no stain. After that, add 30% glacial acetic acid to all wells with shaking plates on Microplate reader (TECAN, Inc.) to measure the absorbance, using a test wavelength of 490 nm. Besides, compare the treated samples with the control cell. The cytotoxicity was estimated by IC50 in (μ M), the concentration that inhibits 50% of growth of cancer cell. […]
(§5) The molecular docking simulation of the promising in vitro screened cyclopenta[4,5]thieno[2,3-d][1,2,4]triazolo[1,5-a]pyrimidin-9(6H)-ones 10b and 10e against EGFR and PI3K was done using the Molecular Operating Environment software (MOE-Dock) version 2014.0901. The co-crystallized structures of EGFR and PI3K kinases complexed with their native ligands, erlotinib and quinolone LXX, were downloaded from the protein data bank (PDB codes: 1M17 and 3L54, respectively). All minimizations were performed using MOE until an RMSD gradient of 0.05 kcal∙mol−1Å−1 with MMFF94x force field and the partial charges were automatically calculated. Preparation of the enzyme structures was done for molecular docking using Protonate 3D protocol with the default options in MOE. London dG scoring function and Triangle Matcher placement method were used in the docking protocol. Initially, the original ligands were re-docked into the active binding site of EGFR and PI3K kinases to assess the root-mean-square deviation values. Then, the docking studies of the newly targeted […]

[2] = tested on: human colorectal HCT-116 cancer cell line; experiment: In vitro cytotoxic screening (MTT assay), HCT-116; format: cell-based; conditions: average ± standard deviation
Procedure: as §1, §2, §3, §4, §5

[3] = tested on: human prostate PC-3 cancer cell line; experiment: In vitro cytotoxic screening (MTT assay), PC-3; format: cell-based; conditions: average ± standard deviation
Procedure: as §1, §2, §3, §4, §5

Row | SMILES | Percentage cytotoxicity on MCF-7 ([1]; 12.5 µM) [%] | Percentage cytotoxicity on MCF-7 ([1]; 25 µM) [%] | Percentage cytotoxicity on MCF-7 ([1]; 50 µM) | Percentage cytotoxicity on MCF-7 ([1]; 100 µM) | Percentage cytotoxicity on HCT-116 ([2]; 12.5 µM) [%] | Percentage cytotoxicity on HCT-116 ([2]; 25 µM) [%] | Percentage cytotoxicity on HCT-116 ([2]; 50 µM) [%] | Percentage cytotoxicity on HCT-116 ([2]; 100 µM) [%] | melting point [°C] | Percentage cytotoxicity on PC-3 ([3]; 12.5 µM) [%] | Percentage cytotoxicity on PC-3 ([3]; 25 µM) [%] | Percentage cytotoxicity on PC-3 ([3]; 50 µM) [%] | Percentage cytotoxicity on PC-3 ([3]; 100 µM) [%] | IC50 ([1]; Homo sapiens, MCF7, MCF-7, 48 h incubation, mean of three values, read-out: IC50 (Mean ± SD) MCF-7) [µM]
1 | CC(=O)C/C(C)=N/n1c(N[C@@H]2O[C@H](COC(C)=O)[C@@H](OC(C)=O)[C@H](OC(C)=O)[C@H]2OC(C)=O)nc2sc3c(c2c1=O)CCC3 [Compound 15, (E)-3-((4-Oxopentan-2-ylidene)amino)-2-((2,3,4,6-tetra-O-acetyl-β-D-glocopyranosyl)amino)-6,7-dihydro-3H-cyclopenta[4,5]thieno[2,3-d]pyrimidin-4(5H)-one] | 0.0±0.005 | 0.0±0.005 | 0.0±0.005% | 19.7±3.7% | 0.0±0.005 | 0.0±0.005 | 0.0±0.005 | 3.0±1.2 | > 300 | 0.0±0.005 | 0.0±0.005 | 0.0±0.005 | 5.6±1.2 | 
2 | COc1ccc(-c2nn3c(=O)c4c5c(sc4nc3n2[C@@H]2O[C@H](COC(C)=O)[C@@H](OC(C)=O)[C@H](OC(C)=O)[C@H]2OC(C)=O)CCC5)cc1 [Compound 16, 2-(4-Methoxyphenyl)-3-(2,3,4,6-tetra-O-acetyl-β-D-glocopyranosyl)-7,8-dihydro-3H-cyclopenta[4,5]thieno[2,3-d][1,2,4]triazolo[1,5-a]pyrimidin-9(6H)-one] | 0.0±0.005 | 0.0±0.005 | 0.0±0.005% | 29.5±1.6% | 0.0±0.005 | 0.0±0.005 | 0.0±0.005 | 1.0±0.5 | > 300 | 0.0±0.005 | 0.0±0.005 | 0.0±0.005 | 14.5±1.6 | 
3 | COc1ccc(-c2nn3c(=O)c4c5c(sc4nc3[nH]2)CCC5)cc1 [Compound 10d, 2-(4-Methoxyphenyl)-7,8-dihydro-3H-cyclopenta[4,5]thieno[2,3-d][1,2,4]triazolo[1,5-a]pyrimidin-9(6H)-one] | 12.7±2.1 | 35.1±5.9 | 47.3±8.5% | 53.1±6.1% | 0.0±0.005 | 0.0±0.005 | 0.0±0.005 | 14.3±4.3 | 180 to 182 | 9.1±6.3 | 21.6±0.06 | 26.9±1.2 | 36.4±3.1 | 
4 | CC(=O)C/C(C)=N/n1c(N)nc2sc3c(c2c1=O)CCC3 [Compound 8, (E)-2-Amino-3-((4-oxopentan-2-ylidene)amino)-3,5,6,7-tetrahydro-4H-cyclopenta[4,5]thieno[2,3-d]pyrimidin-4-one] | 30.1±4.1 | 31.9±3.1 | 40.9±7.8% | 45.7±5.9% | 0.0±0.005 | 0.0±0.005 | 0.0±0.005 | 0.0±0.005 | > 300 | 0.0±0.005 | 0.0±0.005 | 0.0±0.005 | 0.0±0.005 | 
5 | O=c1c2c3c(sc2nc2[nH]c(-c4ccc(Cl)cc4)nn12)CCC3 [Compound 10a, 2-(4-Chlorophenyl)-7,8-dihydro-3H-cyclopenta[4,5]thieno[2,3-d][1,2,4]triazolo[1,5-a]pyrimidin-9(6H)-one] | 16.5±9.5 | 33.3±0.8 | 44.4±11.2% | 61.4±4.7% | 14.4±2.3 | 17.8±1.7 | 17.9±1.7 | 20.3±2.1 | 220 to 222 | 20.7±3.9 | 30.7±0.5 | 35.9±0.8 | 40.9±4.1 | 60.6 ± 0.45
6 | CC(=O)OC[C@H]1O[C@@H](n2cnn3c(=O)c4c5c(sc4nc23)CCC5)[C@H](OC(C)=O)[C@@H](OC(C)=O)[C@@H]1OC(C)=O [Compound 14, 3-(2,3,4,6-Tetra-O-acetyl-β-d-glocopyranosyl)-7,8-dihydro-3H-cyclopenta-[4,5]thieno-[2,3-d][1,2,4]triazolo[1,5-a]pyrimidin-9(6H)-one] | 0.0±0.005 | 0.0±0.005 | 0.0±0.005% | 29.2±0.8% | 0.0±0.005 | 0.0±0.005 | 0.0±0.005 | 15.7±2.9 | > 300 | 0.0±0.005 | 0.0±0.005 | 0.0±0.005 | 9.5±1.9 | 
7 | O=c1c2c3c(sc2nc2nc([C@H](O)[C@@H](O)[C@H](O)[C@H](O)CO)[nH]n12)CCC3 [Compound 11a, 2-((1S,2R,3R,4R)-1,2,3,4,5-pentahydroxypentyl)-1,6,7,8-tetrahydro-9H-cyclopenta[4,5]thieno[2,3-d][1,2,4]triazolo[1,5-a]pyrimidin-9-one] | 0.0±0.005 | 16.2±1.6 | 41.3±4.3% and 36.6±6.3% | 36.6±6.3% and 41.3±4.3% | 12.94±4.6 | 12.94±4.6 | 25.8±1.6 | 32.4±3.9 | > 300 | 9.9±2.5 | 21.9±1.0 | 7.3±0.3 | 33.9±3.5 | 
8 | CC(=O)OC[C@@H](OC(C)=O)[C@@H](OC(C)=O)[C@H](OC(C)=O)[C@@H](OC(C)=O)c1nc2nc3sc4c(c3c(=O)n2[nH]1)CCC4 [Compound 12a, (1S,2R,3R,4R)-1-(9-oxo-1,7,8,9-tetrahydro-6H-cyclopenta[4,5]thieno[2,3-d][1,2,4]triazolo[1,5-a]pyrimidin-2-yl)pentane-1,2,3,4,5-pentayl pentaacetate] |  |  |  |  |  |  |  |  | > 300 |  |  |  |  | 
9 | N#CCc1nn2c(=O)c3c4c(sc3nc2[nH]1)CCC4 [Compound 7, 2-(9-Oxo-6,7,8,9-tetrahydro-3H-cyclopenta[4,5]thieno[2,3-d][1,2,4]triazolo[1,5-a]pyrimidin-2-yl)acetonitrile] |  |  |  |  |  |  |  |  | > 300 |  |  |  |  | 
